The target of assay [1] is T1, Sodium- and chloride-dependent glycine transporter 1 (Homo sapiens, UniProt P48067).
T1 sequence (P48067 whole entry): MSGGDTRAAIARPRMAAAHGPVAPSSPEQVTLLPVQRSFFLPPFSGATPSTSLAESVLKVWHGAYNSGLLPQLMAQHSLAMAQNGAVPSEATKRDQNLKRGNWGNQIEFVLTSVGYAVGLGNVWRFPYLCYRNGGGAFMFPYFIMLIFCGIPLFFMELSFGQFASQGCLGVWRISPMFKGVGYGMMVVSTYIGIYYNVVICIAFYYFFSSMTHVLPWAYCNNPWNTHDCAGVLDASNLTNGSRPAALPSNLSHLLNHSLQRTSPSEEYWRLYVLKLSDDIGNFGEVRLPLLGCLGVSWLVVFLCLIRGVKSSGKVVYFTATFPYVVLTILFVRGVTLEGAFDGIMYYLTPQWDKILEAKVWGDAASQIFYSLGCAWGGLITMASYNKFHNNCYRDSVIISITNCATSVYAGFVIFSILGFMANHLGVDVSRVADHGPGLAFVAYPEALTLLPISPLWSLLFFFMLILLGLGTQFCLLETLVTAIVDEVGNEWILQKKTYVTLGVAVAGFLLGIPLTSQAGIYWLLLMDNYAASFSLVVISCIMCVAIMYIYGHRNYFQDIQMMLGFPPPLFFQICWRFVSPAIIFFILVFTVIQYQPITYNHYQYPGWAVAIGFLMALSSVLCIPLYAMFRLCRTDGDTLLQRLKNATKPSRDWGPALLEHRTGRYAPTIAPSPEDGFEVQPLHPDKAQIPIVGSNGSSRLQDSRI
Kind of assay: Radioligand Binding Assay: Radioligand binding to human GlyT1c transporter-expressing membranes was carried out as described in Mezler et al., Molecular Pharmacology 74:1705-1715, 2008.More specifically, [3H]-(R)-NPTS radioligand binding to human GlyT1c transporter-expressing membranes was measured in duplicate in a total volume of 200 ul in 96-well plates. To 100 ul of membrane suspension (yielding a final membrane protein concentration of 50 ug/ml) in assay buffer (120 mM NaCl, 2 mM KCl, 10 mM Hepes, 1 mM MgCl2, 1 mM CaCl2, pH 7.5) 80 ul of [3H]-(R)-NPTS (0.5 nM final) were added in assay buffer. For competition experiments 10 ul of buffer or unlabeled compound solution obtained from dilution series of test compounds in DMSO followed. An intermediate 1:10 dilution in assay buffer yielded a final DMSO concentration of 1%. Non-specific binding was determined in the presence of 10 uM Org24598 (or its racemate Org24461) for [3H]-(R)-NPTS.

The target in assay [2] is T1, Sodium- and chloride-dependent glycine transporter 1. Nature of the assay: Glycine Uptake Assay: [3H]-Glycine uptake into recombinant CHO cells expressing human GlyT1: Human GlyT1c expressing recombinant hGlyT1c_5_CHO cells were plated at 20,000 cells per well in 96 well Cytostar-T scintillation microplates (Amersham Biosciences) and cultured to sub-confluency for 24 h. For glycine uptake assays the culture medium was aspirated and the cells were washed once with 100 ul HBSS (Gibco BRL, #14025-050) with 5 mM L-Alanine (Merck #1007). 80 ul HBSS buffer were added, followed by 10 ul inhibitor or vehicle (10% DMSO) and 10 ul [3H]-glycine (TRK71, Amersham Biosciences) to a final concentration of 200 nM for initiation of glycine uptake. The plates were placed in a Wallac Microbeta (PerkinElmer) and continuously counted by solid phase scintillation spectrometry during up to 3 hours. Nonspecific uptake was determined in the presence of 10 uM Org2 4598. IC50 calculations were made by four-parametric logistic nonlinear regressi on analysis (GraphPad Prism). Type of assay: cell-based.

Each structure is given as a SMILES string.

As to `Cc1oncc1S(=O)(=O)NCCOc1ccc2c(c1)C(C1(c3ccc(Cl)cc3)CCC1)NCC2` (stereo not given), in assay [1], the Ki was less than 10 µM.

`CCCS(=O)(=O)NCCOc1ccc2c(c1)C(C1(c3cccc(F)c3)CCC1)NCC2` (stereo not given): the IC50 in assay [2] is less than 0.1 µM. The Ki in assay [1] was less than 0.1 µM.

Regarding `O=C1c2ccccc2C(=O)N1CCS(=O)(=O)NCCOc1ccc2c(c1)C(C1(c3ccc(Cl)cc3)CCC1)NCC2` (stereo not given), the IC50 in assay [2] was less than 100 µM. The Ki in assay [1] is less than 10 µM.
